Earlier results in patent US20240139133A1, “TOPICAL NAPROXEN FORMULATIONS AND THEIR USE” (SMARTECH TOPICAL, INC., priority 2021, published 2024).

Settings: printed as a negative log P

For `CCOCCOCCO` [Transcutol, 2-(2-Ethoxyethoxy)ethanol], the log P is listed as about -0.5.
